Laboratory results reported in patent US20120282266A1, “ANTI-NEOPLASTIC USES OF ARTEMIN ANTAGONISTS” (AUCKLAND UNISERVICES LIMITED, priority 2009, published 2012).

Legend:
BT549 PTX Res cells = test: Cell function assays (monolayer viability, soft agar colony formation, 3D matrigel growth), BT549-PTX Res; format: cell-based
Description: (§1) For soft agar colony formation assay, cells were cultured in 96-well plates first covered with a layer of agar (0.5%). Cells were grown in medium containing 10% FBS. 5×10^3 cells were seeded into 100 μl 0.35% agarose and onto the 0.5% agarose base layer. 100 μl serum-supplemented medium containing drug or antibody was added on the top and changed every 3 days. The plates were incubated at 37° C. in a humidified incubator. After 10 days, alarmarBlue® was added (1:10 volume reagent, Invitrogen) and incubated at 37° C. for 4 hours, followed by measurement of fluorescence with excitation wavelength at 530 nm and emission wavelength at 590 nm.
For the 3D Matrigel™ culture, monolayer grown cells were harvested by trypsinization, taken up in the complete medium, and separated into single-cell suspension by several passages through a Pasteur pipette. After this, 50 μl complete medium containing 5,000 cells was added to 150 μl of growth factor reduced Matrigel™ (Becton Dickinson, Bedford, Mass.) diluted 1:1 with complete media with 20% FBS. […] Organoid formation was counted in randomly chosen fields with light microscopy. […]
Cell viability, soft agar colony formation assay and 3D matrigel growth assays were performed as described above in Example 1. For the cell viability assay, 3000 cells were seeded into 100 ul media(2% FBS) and every 24 h viability was determined.

ARTN = test: Western blot for ARTN protein expression in BT549 and MDA-MB-231 cell pairs; format: cell-based, human; settings: BT549 wild type cells, with paclitaxel vs without paclitaxel
Description: Western blot analysis was performed as described previously (Liu and Lobie, 2007) using the following antibodies: goat anti-artemin polyclonal antibody (R&D systems, Minneapolis, Minn.) and mouse anti-β-Actin monoclonal antibody (Sigma, St Louis, Mo.).
Western blot analysis was performed as described above in Example 1.
Reagents, Western blot analysis, and cell function and viability assays were all done as described above in Example 2.

[1] = test system: TAMS cells (tamoxifen sensitive MCF-7); test: Cell number growth assay in estrogen free medium, TAMS cells; format: cell-based, human; settings: 1 μM tamoxifen, 7 days
Description: (§2) For estrogen-free cell culture, MCF-7 cells were cultured in phenol red free RPMI-1640 supplemented with 10% dextran coated charcoal stripped fetal bovine serum (CS-FBS) for 3 days before estrogen or antiestrogen treatment. The tamoxifen resistant (TAMR) cell line was established as described by Shaw et al. (2006). Briefly, the parental MCF-7 cells were continuously exposed for 6 months to 1 μM tamoxifen in phenol red free RPMI 1640 medium containing 10% CS-FBS until the cells developed resistance to the growth inhibitory effect of tamoxifen. MCF-7 cells sensitive to tamoxifen, cultured in the same medium without tamoxifen, were designated as tamoxifen sensitive (TAMS) cells. Cells were seeded onto 6-well plates at a density of 5×10^4 cells per well, in triplicate, in 3 ml of complete medium containing 10% or 0.2% FBS. Cells were cultured under these conditions for up to 10 days with medium changed every other day until harvesting. To compare the cell proliferation rate, the total cell number in each well was quantified with a haemocytometer every 2 days. Cell viability was assessed by using trypan blue.

[2] = test system: TAMR cells (tamoxifen resistant MCF-7); test: Cell number growth assay in estrogen free medium, TAMR cells; format: cell-based, human; settings: 1 μM tamoxifen, 7 days
Description: as §2

artemin = test: Artemin expression by semi-quantitative RT-PCR and Western blot in TAMS/TAMR cells; format: cell-based, human; settings: 1 μM tamoxifen, 72 hours
Description: Total RNA was isolated from cultured cells with Trizol reagent (Invitrogen) at 1 ml/10 cm2 according to the manufacturer's instructions. RNA was resuspended in diethyl pyrocarbonate (DEPC)-treated nuclease-free water. RNA samples were further treated with DNase I for 30 min at 37° C. The reaction was stopped by addition of 25 mM EDTA and incubation at 65° C. for 15 min. RNA samples were then purified by extraction in phenol/chloroform (pH 5.2, phenol:chloroform:isoamyl alcohol at 25:24:1) followed by an additional chloroform extraction and ethanol precipitation. Quantification and purity of the RNA was assessed by A260/A280 absorption, and RNA quality was assessed by agarose gel electrophoresis. RNA samples with ratios of A260/A280 greater than 1.6 were stored at −80° C. for further analysis.
One-step reverse transcription (RT)-PCR kit (Qiagen) was used to determine the presence of artemin transcript using a pair of primers: 5′-[…]-3 (forward; SEQ ID NO: 41) and 5′-[…]-3′ (reverse; SEQ ID NO: 42). For RT-PCR, the following procedure was employed. To start, 1 μg of total RNA was diluted to 0.1 μg/μl to minimize the variation of sample handling. This dilution was treated by DNase I for 15 min, followed by inactivation of DNase by adding EDTA to 5 mM and heating to 70° C. for 15 min. […]

[3] = test system: TAMR cells (tamoxifen resistant MCF-7); test: Soft agar colony formation (anchorage independent growth), TAMR cells; format: cell-based, human; settings: 1 μM tamoxifen alone, 10 days
Description: as §1
To perform soft agar colony formation assays, 50 μl of 0.5% agarose in serum containing medium was plated onto each well of 96-well flat-bottom microplates, as a base agar layer. Next, 5×10^3 cells in a […] mixture of 0.35% agarose in serum containing medium were plated onto the base layer. Subsequently, 100 μl of the medium was added to prevent drying of the agarose gels. For antibody treatment, the antibodies at the indicated concentrations were added into the top agar layer and the culture medium to ensure the complete exposure of cells to antibodies. […] The plate was shaken briefly and then read at 595 nm (test wavelength) and 690 nm (reference wavelength) using the Synergy™ 2 Multi-Mode Microplate Reader (BioTek instruments, Inc., Vermont, USA).

Row | SMILES | difference in sensitivity to paclitaxel, resistant subline vs parental line (BT549 PTX Res cells; BT549-PTX Res vs parental BT549) [fold] | sensitivity to paclitaxel in monolayer proliferation, colony formation in soft agar and 3D matrigel growth (BT549 PTX Res cells; paclitaxel resistant cells compared to paclitaxel sensitive cells) | ARTN expression (ARTN) | growth of TAMS cells [1] | growth of TAMR cells [2] | artemin expression (mRNA and protein) (artemin; TAMR cells) | artemin expression (mRNA and protein) (artemin; TAMS cells) | colony formation in soft agar [3]
1 | CC(=O)O[C@H]1C(=O)[C@@]2(C)[C@H]([C@H](OC(=O)c3ccccc3)[C@]3(O)C[C@H](OC(=O)[C@H](O)[C@@H](NC(=O)c4ccccc4)c4ccccc4)C(C)=C1C3(C)C)[C@]1(OC(C)=O)CO[C@@H]1C[C@@H]2O [paclitaxel] | ~2 | less sensitivity to paclitaxel | increased ARTN expression | – | – | – | – | –
2 | CC/C(=C(\c1ccccc1)c1ccc(OCCN(C)C)cc1)c1ccccc1 [tamoxifen] | – | – | – | retained the response to E2 and tamoxifen sensitivity | loss of response to E2 and of tamoxifen sensitivity | retained elevated artemin expression | markedly abrogated artemin expression | did not affect colony formation
